Source: US6743790B2, “Factor VIIa inhibitory (thio)urea derivatives, their preparation and their use” (Aventis Pharma Deutschland GmbH, priority 2000, dated 2004)

Target: T1, factor VIIa/tissue factor (Homo sapiens, UniProt P08709)
T1 construct: human factor VIIa and TF (5 nM and 10 nM, respective final concentration)
Assay: Factor VIIa (FVIIa) chromogenic assay
Assay type: biochemical
Details: human factor VIIa 5 nM and TF 10 nM, substrate S-2288 500 μM, 25° C., 15 minute preincubation
Procedure: The ability of the compounds of the formula I to inhibit factor VIIa or other enzymes like factor Xa, thrombin, plasmin, or trypsin is assessed by determining the concentration of the compound of the formula I that inhibits enzyme activity by 50%, i.e. the IC50 value, which is related to the inhibition constant Ki. Purified enzymes are used in chromogenic assays. The concentration of inhibitor that causes a 50% decrease in the rate of substrate hydrolysis is determined by linear regression after plotting the relative rates of hydrolysis (compared to the uninhibited control) versus the log of the concentration of the compound of formula I. For calculating the inhibition constant Ki, the IC50 value is corrected for competition with substrate using the formula Ki=IC50/{1+(substrate concentration/Km)},
wherein Km is the Michaelis-Menten constant (Chen and Prusoff, Biochem. Pharmacol. 22 (1973), 3099-3108; I. H. Segal, Enzyme Kinetics, 1975, John Wiley & Sons, New York, 100-125; which are incorporated herein by reference).
The inhibitory activity (expressed as inhibition constant Ki(FVIIa)) of the compounds of formula I towards factor VIIa/tissue factor activity was determined using a chromogenic assay essentially as described previously (J. A. Ostrem et al., Biochemistry 37 (1998) 1053-1059 which is incorporated herein by reference). Kinetic assays were conducted at 25° C. in half-area microtiter plates (Costar Corp., Cambridge, Mass.) using a kinetic plate reader (Molecular Devices Spectramax 250). A typical assay consisted of 25 μl human factor VIIa and TF (5 nM and 10 nM, respective final concentration) combined with 40 μl of inhibitor dilutions in 10% DMSO/TBS-PEG buffer (50 mM Tris, 15 mM NaCl, 5 mM CaCl2, 0.05% PEG 8000, pH 8.15). Following a 15 minute preincubation period, the assay was initiated by the addition of 35 μl of the chromogenic substrate S-2288 (D-Ile-Pro-Arg-p-nitroanilide, Pharmacia Hepar Inc., 500 μM final concentration).

T1 sequence (P08709 213-466 limits assumed): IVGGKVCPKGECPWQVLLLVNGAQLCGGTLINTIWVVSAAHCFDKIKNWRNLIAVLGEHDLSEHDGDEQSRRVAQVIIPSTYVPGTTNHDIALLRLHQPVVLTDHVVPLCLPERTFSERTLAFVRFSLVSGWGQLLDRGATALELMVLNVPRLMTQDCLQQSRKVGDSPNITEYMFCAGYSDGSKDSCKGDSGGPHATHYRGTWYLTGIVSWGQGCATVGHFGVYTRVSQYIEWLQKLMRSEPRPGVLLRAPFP
T1 sequence (P08709 61-212 limits assumed): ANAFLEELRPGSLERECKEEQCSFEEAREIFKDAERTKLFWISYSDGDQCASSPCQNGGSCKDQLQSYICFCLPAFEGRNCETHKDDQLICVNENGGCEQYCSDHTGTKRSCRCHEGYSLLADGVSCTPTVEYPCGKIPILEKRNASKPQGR
T1 sequence (P13726 33-295 partner): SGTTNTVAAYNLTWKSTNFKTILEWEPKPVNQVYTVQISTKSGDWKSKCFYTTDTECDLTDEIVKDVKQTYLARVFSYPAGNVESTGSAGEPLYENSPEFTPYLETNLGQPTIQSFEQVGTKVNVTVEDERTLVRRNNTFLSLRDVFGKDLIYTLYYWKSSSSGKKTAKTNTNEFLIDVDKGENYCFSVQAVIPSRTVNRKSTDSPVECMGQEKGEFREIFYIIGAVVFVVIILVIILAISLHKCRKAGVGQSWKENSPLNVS

SMILES	Ki [nM]
N=C(N)c1ccc(NC(=O)NCC(=O)NCc2ccncc2)cc1 [Example 40]	7890
N=C(N)c1ccc(NC(=O)NCC(=O)NC(c2ccccc2)c2ccncc2)cc1 (centres unmarked) [Example 41]	840
COC(=O)c1cc(C(C)NC(=O)CNC(=O)Nc2ccc(C(=N)N)cc2)ccc1OCc1ccccc1 (centres unmarked) [Example 64]	33
C[C@H](NC(=O)CNC(=O)Nc1ccc(C(=N)N)cc1)c1ccccc1 [Example 18]	430
N=C(N)c1ccc(NC(=O)NCC(=O)NC(Cc2ccccc2)c2ccccc2)cc1 (centres unmarked) [Example 15]	6300
CN(C)c1ccc(CNC(=O)C(Cc2ccccc2)NC(=O)Nc2ccc(C(=N)N)cc2)cc1 (centres unmarked) [Example 2, 2-[3-(4-Carbamimidoylphenyl)ureido]-N-(4-dimethylaminobenzyl)-3-phenylpropionamide]	20900
CC(NC(=O)CNC(=O)Nc1ccc(C(=N)N)cc1)c1ccc(Oc2ccc([N+](=O)[O-])cc2)cc1 (centres unmarked) [Example 37]	86
C[C@H](NC(=O)[C@H](CCC(=O)O)NC(=O)Nc1ccc(C(=N)N)cc1)c1cccc(Br)c1 [Example 70, (S)-4-[((S)-1-(3-Bromophenyl)ethyl)carbamoyl]-4-[3-(4-carbamimidoylphenyl)ureido]-butyric Acid]	539
C[C@H](NC(=O)CNC(=O)Nc1ccc(C(=N)N)c(F)c1)c1cccc(Br)c1 [Example 69, N-[(S)-1-(3-Bromophenyl)ethyl]-2-[3-(4-carbamimidoyl-3-fluorophenyl)ureido]-acetamide]	116
N=C(N)c1ccc(NC(=O)NCC(=O)NCc2ccc(Cl)c(Cl)c2)cc1 [Example 3, 2-[3-(4-Carbamimidoylphenyl)ureido]-N-(3,4-dichlorobenzyl)acetamide]	970
Cc1ccc([C@H](C)NC(=O)CNC(=O)Nc2ccc(C(=N)N)cc2)cc1 [Example 21]	130
CC(NC(=O)CNC(=O)Nc1ccc(C(=N)N)c(Cl)c1)c1ccc2c(c1)OCCO2 (centres unmarked) [Example 68, 2-[3-(4-Carbamimidoyl-3-chlorophenyl)ureido]-N-[1-(2,3-dihydrobenzo[1,4]dioxin-6-yl)ethyl]acetamide]	3940
CC(NC(=O)CNC(=O)Nc1ccc(C(=N)N)cc1)c1ccc(C(F)(F)F)cc1C(F)(F)F (centres unmarked) [Example 60]	27
CC(NC(=O)CNC(=O)Nc1ccc(C(=N)N)cc1)c1ccc(NC(=O)C2CCNCC2)cc1 (centres unmarked) [Example 49, Piperidine-4-carboxylic acid 4-(1-{2-[3-(4-carbamimidoylphenyl)ureido]acetylamino}-ethyl)phenylamide]	13
COc1ccc(Oc2ccc(C(C)NC(=O)CNC(=O)Nc3ccc(C(=N)N)cc3)cc2)cc1 (centres unmarked) [Example 36]	83
CC(C)(NC(=O)CNC(=O)Nc1ccc(C(=N)N)cc1)c1ccccc1 [Example 42]	7620
CC(NC(=O)CNC(=O)Nc1ccc(C(=N)N)cc1)c1ccc(NC(=O)c2cccnc2)cc1 (centres unmarked) [Example 51]	50
N#CC(NC(=O)CNC(=O)Nc1ccc(C(=N)N)cc1)c1ccc(F)cc1 (centres unmarked) [Example 43]	8470

More lines, in order of falling Ki, values ahead:

Ki [nM]	SMILES
20200	C[C@@H](NC(=O)CNC(=O)Nc1ccc(C(=N)N)cc1)c1ccccc1 [Example 19]
14900	C[C@H](NC(=O)Nc1ccc(C(=N)N)cc1)C(=O)NCc1ccc(C(=N)N)cc1 [Example 1, (S)-N-(4-Carbamimidoylbenzyl)-2-[3-(4-carbamimidoylphenyl)ureido]propionamide]
2170	N=C(N)c1ccc(NC(=O)NCC(=O)NCc2cccc(Cl)c2)cc1 [Example 6, 2-[3-(4-carbamimidoylphenyl)ureido]-N-(3-chlorobenzyl)acetamide]
1940	CN(C)c1ccc(CNC(=O)CNC(=O)Nc2ccc(C(=N)N)cc2)cc1 [Example 4, 2-[3-(4-Carbamimidoylphenyl)ureido]-N-(4-dimethylaminobenzyl)acetamide]
1500	N=C(N)c1ccc(NC(=O)NCC(=O)N[C@H]2CCc3ccccc32)cc1 [Example 44]
1410	N=C(N)c1ccc(NC(=O)NCC(=O)N[C@H]2CCCc3ccccc32)cc1 [Example 45]
730	N=C(N)c1ccc(NC(=O)NCC(=O)NC(c2ccccc2)c2ccccc2)cc1 [Example 5, N-Benzhydryl-2-[3-(4-carbamimidoylphenyl)ureido]acetamide]
480	CC(NC(=O)CNC(=O)Nc1ccc(C(=N)N)cc1)c1ccc(Oc2ccc(Cl)cc2Cl)cc1 (centres unmarked) [Example 9]
47	CC(NC(=O)CNC(=O)Nc1ccc(C(=N)N)cc1)c1ccc(NC(=O)CCCN)cc1 (centres unmarked) [Example 54]
26	C[C@H](NC(=O)CNC(=O)Nc1ccc(C(=N)N)cc1)c1ccc2ccccc2c1 [Example 30]
23	CC(NC(=O)CNC(=O)Nc1ccc(C(=N)N)cc1)c1ccc2c(c1)NC(=O)CO2 (centres unmarked) [Example 61]
12	CC(NC(=O)CNC(=O)Nc1ccc(C(=N)N)cc1)c1ccc(NC(=O)c2cccc(Oc3ccccc3)c2)cc1 (centres unmarked) [Example 52]

System: not given
Assay: not given
Details: not given

SMILES	melting point [°C]
CN(C)c1ccc(CNC(=O)C(Cc2ccccc2)NC(=O)Nc2ccc(C(=N)N)cc2)cc1 (centres unmarked) [Example 2, 2-[3-(4-Carbamimidoylphenyl)ureido]-N-(4-dimethylaminobenzyl)-3-phenylpropionamide]	147
CN(C)c1ccc(CNC(=O)CNC(=O)Nc2ccc(C(=N)N)cc2)cc1 [Example 4, 2-[3-(4-Carbamimidoylphenyl)ureido]-N-(4-dimethylaminobenzyl)acetamide]	209 to 214
